Source: US9556437B2, “FAT1 gene in cancer and inflammation” (DEPARTMENT OF BIOTECHNOLOGY (DBT), priority 2012, dated 2017)
Entries after “also recorded” stand apart in the source; their conditions may differ.

How the values were obtained:
Format in all cases: cell-based, human
U87MG cells [1] = test: Invasion assay, matrigel; settings: U87MGsiFAT1 vs siControl, P<0.01
Description: (§1) Migration and Invasion Assays: The modified Boyden chamber/matrigel assay was performed according to the manufacturer's directions (BD Biosciences, Bedford, Mass.). For in vitro migration assays, chambers with control inserts that lacked the matrigel coating were used. Transfections were carried out in U87MG and A172 cells and 48 hrs later 3×10^4 U87MG cells/well and 7×10^4 A172 cells/well were resuspended in serum-free DMEM and seeded in triplicate in matrigel-coated (1 mg/ml; BD Biosciences) and uncoated control inserts (8-μm pore-size, BD Bioscience, Bedford, Mass.). The remaining protocol was done as previously described.

A172 cells = test: Invasion assay, matrigel; settings: A172siFAT1 vs siControl, P<0.01
Description: as §1

U87MG cells [2] = test: In vitro Scratch Assay of cell migration
Description: FIGS. 14A to 14D: Effect of NS-398 and FAT1 knockdown simultaneously on Cell Migration by In-vitro Scratch Assay. The in vitro Scratch Assay was performed at 72 hours after culturing cells as follows: At Day 0, 5,000 U87MG cells are plated per well of a 96 well plate. […] (C) Assay of cell migration by the Modified Boyden Chamber Assay under conditions of normoxia and hypoxia. (D) Quantitation of data from (C).
The Scratch Assay is performed at 72 hours after treatment. A scratch is made on the culture surface using a sterile 10 μl tip and cells were allowed to grow. Images were captured after every 3 hrs to monitor the closure of the wound in the culture surface for next 24 hrs.

PDCD4 = PDCD4 mRNA expression by q-PCR; settings: 72 hrs post siRNA transfection
Description: Cell Culture and siRNA Transfection: The human glioma cell lines U87MG, U373, A172, T98G, GOS3 and SW1088 were obtained from ATCC; Rockville, Md., cultured in DMEM (Sigma-Aldrich, Switzerland) supplemented with 10% (v/v) FCS (Sigma-Aldrich), 3.7 g/l sodium bicarbonate (Sigma-Aldrich), Ciprofloxacin 10 μg/ml and 5% CO2 at 37° C. For transfection, 2×10^5 cells were seeded per 25 cm^2 flask. After 24 hrs, cells were transfected with FAT1 siRNA and universal medium GC control siRNA (Invitrogen) according to the manufacturer's protocol with a final concentration of 20 nM of siRNA using LIPOFECTAMINE 2000 (Invitrogen) and Opti-Mem media (Invitrogen). After 4 hrs of siRNA transfection, the media was supplemented with DMEM containing 2×FCS. The ability of each siRNA to mediate knockdown of FAT1 mRNA was confirmed using qRT-PCR. Photomicrographs of the cells were taken using an inverted phase contrast microscope (Nikon TMS, Phase contrast microscope, Japan). For simultaneous knockdown of FAT1 and PDCD4, siRNA from Dharmacon were used. Transfection was performed as earlier with 50 nM of FAT1 siRNA along with 50 nM of PDCD4 siRNA or 50 nM of control siRNA.
cDNA Synthesis and Quantitative PCR: Total RNA was isolated from cells at appropriate time point (vide supra) using TRIzol reagent (Invitrogen), quantified using a Nanodrop ND-1000 spectrophotometer. DNase (Ambion) treatment was given and 1 μg of total RNA was used for cDNA synthesis, done by Fermentas RevertAid™ First Strand cDNA Synthesis Kit using random decamers. PCR reactions were carried in 10 μL reaction volumes (2.5 μL of 1:5 diluted cDNA, […] of primer mix (0.5 pmol/μL as final concentration of each primer), 1 μL, of 10× Taq Buffer A, 0.5 U Taq polymerase (Bangalore Genei, Bangalore, India), 1 μL Syto9 (Invitrogen), 0.25 μL of 10 mM dNTPs (MBI Fermentas, Thermo Fisher Scientific, Rockford, Ill. USA), and 4.6 μL of nuclease-free water (Ambion) on a RotorGene6000 Real Time PCR in triplicates. The detail of the primers used is given in Table 1. ΔCt values were defined as target gene Ct minus 18s RNA Ct and averaged for each triplicate sample. Statistical significance was determined by Student's t-test analysis (P<0.05).

U87MG cells [3] = test: MTT assay; settings: 24, 48, 72 and 96 hrs of transfection, vs siControl
Description: On day 1, siRNA transfection was carried out. 1 ml of OPTIMEM, 50 picomoles of siRNA (siControl and siFAT1) and 3 μl of LIPOFECTAMINE 2000 was used per well. Cells were then analyzed by flow-cytometery after 72 hrs of transfection to assess the cell cycle distribution of individual cells. Cells were fixed in 70% ethanol overnight at −20′C followed by propidium iodide (PI) staining. Florescence was measured on FACS (florescence activated cell sorter, BD Biosciences, Bedford, Mass.). […] On day 1, transfection was carried out. 50 μl of OPTIMEM, 2 picomoles of siRNA (control and FAT1 siRNA) and 0.5 μl of LIPOFECTAMINE 2000 was used per well. After 4 hrs incubation at 37° C., 50 μl 2× media was added per well. After every time point (24, 48, 72 and 96 hrs of transfection), media was removed from wells and 100 μl of MTT (0.2 mg/ml) was added per well and incubated for 2-4 hrs. The formazan crystals formed were dissolved by addition of 100 μl of DMSO and absorbance was measured at 570 nm.

COX-2 = test: Western blot COX-2 protein; settings: U87MGsiFAT1 vs siControl
Description: Western Blotting Analyses: Cells were lysed in triple detergent buffer containing protease and phosphatase inhibitors (Sigma Aldrich), lysates were quantified by BCA kit (Pierce, Thermo Fisher Scientific, Rockford, Ill. USA) and electrophoresed in 10% SDS-PAGE and electroblotted on nitrocellulose membrane (Millipore, Billerica, Mass., USA). Membrane was blocked with 5% bovine serum albumin (BSA) in 1×TBS at 4° C. for overnight. Primary and secondary antibody was diluted in 5% BSA and 0.1% tween-20 in 1×TBS. Blot was incubated in primary antibody overnight at 4° C. followed by secondary antibody incubation for 2 hrs at room temperature. Blot was developed by BCIP-NBT (Promega, Madison, Wis., USA) and captured using Alpha Imager EP software.

siFAT1: FAT1 specific siRNA (Invitrogen), FAT Stealth RNAi siRNA-I (HSS103567), used for further experiments (sense CCCAACACACCUGUGGUCAUGGUAA; antisense UUACCAUGACCACAGGUGUGUUGGG; Stealth modification, chemistry not fully specified; listed as Homo sapiens)
reduction in invasion (U87MG cells [1]): > 2 fold | reduction in invasion (A172 cells): > 1.5 fold | inhibition of cell migration (U87MG cells [2]; Scratch Assay at 72 hours after treatment): about 50% | migration ability of cells (U87MG cells [2]; scratch and modified Boyden chamber assays, normoxic or hypoxic conditions (FIG. 14)): reduced | increase in PDCD4 mRNA expression (PDCD4; A172, vs siControl): 2.8 fold | increase in PDCD4 mRNA expression (PDCD4; T98G, vs siControl): 3.5 fold | increase in PDCD4 mRNA expression (PDCD4; U87MG, vs siControl): 2.4 fold | increase in PDCD4 mRNA expression (PDCD4; U373MG, vs siControl): 3.2 fold | increase in PDCD4 mRNA expression (PDCD4; all the GBM cell lines (U87MG, A172, U373 and T98)): more than two fold | cell viability / proliferation by MTT (U87MG cells [3]): no variation; also recorded: No significant difference | COX-2 protein expression (COX-2): Significant reduction; also recorded: decreased
